Data as given in patent US11945824B2, “Heterocyclic compounds as anti-viral agents” (priority 2020, dated 2024).
Read-outs that look alike come from different tables or passages of the source.

Tests used:
[1] = system: Human RSV-A (“Long” strain); assay: RSV-A assay (CPE, ATPlite readout in Hep-2 cells); assay type: cell-based; conditions: human respiratory syncytial virus, read-out: Human RSV-A (“Long” strain) EC50
Description: Hep-2 cells, (originally derived from tumors grown in irradiated-cortisonised weanling rats that had been injected with epidermoid carcinoma tissue from a person's larynx, but later found to be indistinguishable from HeLa cells by PCR DNA analysis), were used for the culturing of genotype A, “Long” strain RSV. Flasks were inoculated with RSV and viral stocks were collected once cytopathic effect (CPE) was greater than 90%. Viral stocks in 25% sucrose media were snap frozen using liquid nitrogen to increase viral stability. Viral stock titers were quantified by tissue culture infectious dose 50% (TCID50) using 8,000 cells per well and 3-fold viral dilutions across a 96-well plate, cultured for 4 days. Viral stock titers were also quantified by a plaque forming unit assay, as described elsewhere.
Following extensive parameter testing, the final assay is run as follows: Hep-2 cells are seeded into the inner 60 wells of a 96-well plate at 8,000 cells per well in a volume of 50 μL using Growth Media (DMEM without phenol red, 1% L-Glut, 1% Penn/Strep, 1% nonessential amino acids, 10% heat-inactivated FBS). 2-fold serial dilutions of control and test compounds are added to the wells in duplicate in a total volume of 25 μL. Viral stock is then added to the wells at a multiplicity of infection (MOI) of 0.1 in a volume of 25 μL, bringing the total volume of each well to 100 μL. The MOI is calculated using the PFU/mL, or TCID50 if unavailable. Each 96-well plate has a control column of 6 wells with cells and virus but no compound (negative control, max CPE), a column with cells but no compound or virus (positive control, minimum CPE), and a column with no cells or virus or compound (background plate/reagent control). The control wells with cells but no virus are given an additional 25 μL of growth media containing an equal quantity of sucrose as those wells receiving the viral stock in order to keep consistent in media and volume conditions. The outer wells of the plate are filled with 125 μL of moat media (DMEM, 1% Penn/Strep) to act as a thermal and evaporative moat around the test wells. Following a 5-day incubation period, the plates are read using ATPlite (50 uL added per well), which quantifies the amount of ATP (a measure of cell health) present in each well. Assay plates are read using the Envision luminometer. […] EC50 ranges are as follows: A<0.2 μM; B≥0.2 μM.

[2] = system: rHMPV-GFP (recombinant HMPV CAN97-83, MPV-GFP1); assay: HMPV antiviral assay (eGFP fluorescence in Vero E6 cells); assay type: cell-based; conditions: human metapneumovirus, Vero C1008, 120 h, read-out: rHMPV-GFP EC50
Protocol: Method for HMPV Antiviral Assay
HMPV antiviral activity was evaluated using a recombinant version of HMPV CAN97-83 engineered to contain the coding sequence for enhanced green fluorescence protein (eGFP) in the 3′ end of the virus genome (MPV-GFP1, ViraTree). Vero E6 cells (ATCC #CCL-7) were seeded at a density of 12,000 cells/100 μL/well into 96-well cell plates (VENDOR) one day prior to the assay. On the day of screening, the cell culture medium was aspirated from the wells and cells were washed twice with serum-free Eagle's Modified Essential Medium (EMEM, ATCC #) containing 1% penicillin-streptomycin (Invitrogen) (SF-EMEM). Cell washes were performed by dispensing 100 μL SF-EMEM per well and immediately aspirating the wash medium from the well. Following the second wash step, serum-free OptiMEM (Invitrogen, Cat No.) (SF-OptiMEM) containing 0.5 μg/mL TPCK-Trypsin (VENDOR) and 1% penicillin-streptomycin was added to the cells at 50 μL/well. Compounds were added into the 96-well plates using a JANUS automated liquid handling system (VENDOR). Compounds were initially diluted 1:50 into an intermediate 96-well plate containing SF-OptiMEM prior to transfer to the assay plate (25 μL/well). Each of the test compounds were tested in duplicate wells at final concentrations starting from 8 μM or 2 μM using ½ stepwise dilutions for a total of 8 points. Virus infection was performed by preparing a working stock of MPV-GFP1 at a multiplicity of infection (MOI) equal to 0.05/25 μL and aliquoting 25 μL of virus inoculum to the compound and positive control wells. SF-OptiMEM was added (25 μL/well) to the appropriate wells to serve as a virus-free negative control for the assay. The final DMSO concentration of all wells is 0.5%. Plates were incubated at 32° C., 5% CO2 for 5 days. After 5 days incubation, eGFP fluorescence intensity was measured at […] using a Spectramax i3X plate reader (VENDOR).
Percent viral inhibition was calculated using the following equation: y=[[…](XQ/XP)]×100 Where XQ is the fluorescence intensity measured in a well containing recombinant MPV-GFP1-infected, compound-treated cells and XP is the average fluorescence intensity measured in the wells containing untreated cells infected with recombinant virus. EC50 values were then calculated by non-linear regression using a four-parameter curve logistic equation. The curve fit model employed was XLFit Dose Response One Site Model 200: y=(A+(B/(1+((x/C)^D)))) Where A is the minimum y value, B is the maximum y value, C is the log EC50 value, and D is the slope factor. The EC50 for each compound is listed in Table 2 and EC50 ranges are as follows: A<0.2 μM; B≥0.2 μM.

[3] = 120 h, Hep-2 cells, MOI 0.1, 5-day incubation, ATPlite

SMILES | EC50 [1, 3] [nM] | EC50 [2] [nM] | EC50 ([1]; HEp-2, 120 h) [nM]
COc1cc(C(=O)NC[C@](O)(c2cc3c(c(-c4ccc(F)cc4)n2)OC[C@@]3(n2ccnn2)C(F)(F)F)C(F)(F)F)ccc1OC1CC1 [Example 1, 4-cyclopropoxy-3-methoxy-N-((S)-3,3,3-trifluoro-2-((R)-7-(4-fluorophenyl)-3-(1H-1,2,3-triazol-1-yl)-3-(trifluoromethyl)-2,3-dihydrofuro[2,3-c]pyridin-5-yl)-2-hydroxypropyl)benzamide] | > 200 | > 200 | –
COc1cc(C(=O)NC[C@](C)(O)c2cc3c(c(-c4ccc(F)cc4)n2)OC[C@@]3(n2cnnc2)C(F)(F)F)ccc1OC1CC1 [Example 2, 4-cyclopropoxy-N-((S)-2-((R)-7-(4-fluorophenyl)-3-(4H-1,2,4-triazol-4-yl)-3-(trifluoromethyl)-2,3-dihydrofuro[2,3-c]pyridin-5-yl)-2-hydroxypropyl)-3-methoxybenzamide] | < 200 | > 200 | –
COc1cc(C(=O)NC[C@](O)(c2cc3c(c(-c4ccc(F)cc4)n2)OC[C@@]3(n2cnnc2)C(F)(F)F)C2CC2)ccc1OC1CC1 [Example 3, 4-cyclopropoxy-N-((S)-2-cyclopropyl-2-((R)-7-(4-fluorophenyl)-3-(4H-1,2,4-triazol-4-yl)-3-(trifluoromethyl)-2,3-dihydrofuro[2,3-c]pyridin-5-yl)-2-hydroxyethyl)-3-methoxybenzamide] | – | > 200 | < 200
COc1cc(C(=O)NC[C@](O)(c2cc3c(c(-c4ccc(F)cc4)n2)OC[C@@]3(n2ccnc2)C(F)(F)F)C2CC2)ccc1OC1CC1 [Example 4, 4-cyclopropoxy-N-((S)-2-cyclopropyl-2-((R)-7-(4-fluorophenyl)-3-(1H-imidazol-1-yl)-3-(trifluoromethyl)-2,3-dihydrofuro[2,3-c]pyridin-5-yl)-2-hydroxyethyl)-3-methoxybenzamide] | – | – | < 200
COc1cc(C(=O)NC[C@](O)(c2cc3c(c(-c4ccc(F)cc4)n2)OC[C@]3(C)n2cnnc2)C(F)(F)F)ccc1OC1CC1 [Example 6, 4-cyclopropoxy-3-methoxy-N-((S)-3,3,3-trifluoro-2-((R)-7-(4-fluorophenyl)-3-methyl-3-(4H-1,2,4-triazol-4-yl)-2,3-dihydrofuro[2,3-c]pyridin-5-yl)-2-hydroxypropyl)benzamide] | < 200 | > 200 | –
COc1cc(C(=O)NC[C@](O)(c2cc3c(c(-c4ccc(F)cc4)n2)OC[C@]3(C)n2cnnc2)C(F)(F)F)cc2cccnc12 [Example 7, 8-methoxy-N-((S)-3,3,3-trifluoro-2-((R)-7-(4-fluorophenyl)-3-methyl-3-(4H-1,2,4-triazol-4-yl)-2,3-dihydrofuro[2,3-c]pyridin-5-yl)-2-hydroxypropyl)quinoline-6-carboxamide] | > 200 | – | –
COc1cc(C(=O)NC[C@](O)(c2cc3c(c(-c4ccc(F)cc4)n2)OC[C@]3(C)n2ccnc2)C(F)(F)F)cc2cccnc12 [Example 8, 8-methoxy-N-((S)-3,3,3-trifluoro-2-((R)-7-(4-fluorophenyl)-3-(1H-imidazol-1-yl)-3-methyl-2,3-dihydrofuro[2,3-c]pyridin-5-yl)-2-hydroxypropyl)quinoline-6-carboxamide] | < 200 | – | –
COc1cc(C(=O)NC[C@](O)(c2cc3c(c(-c4ccc(F)cc4)n2)OC[C@]3(C)n2ccnc2)C(F)(F)F)ccc1OC1CC1 [Example 9, 4-cyclopropoxy-3-methoxy-N-((S)-3,3,3-trifluoro-2-((R)-7-(4-fluorophenyl)-3-(1H-imidazol-1-yl)-3-methyl-2,3-dihydrofuro[2,3-c]pyridin-5-yl)-2-hydroxypropyl)benzamide] | < 200 | > 200 | –
COc1cc(C(=O)NC[C@](O)(c2cc3c(c(-c4ccc(F)cc4)n2)OC[C@]3(C)n2cccc2)C(F)(F)F)cc2cccnc12 [Example 10, 8-methoxy-N-((S)-3,3,3-trifluoro-2-((R)-7-(4-fluorophenyl)-3-methyl-3-(1H-pyrrol-1-yl)-2,3-dihydrofuro[2,3-c]pyridin-5-yl)-2-hydroxypropyl)quinoline-6-carboxamide] | > 200 | – | –
COc1cc(C(=O)NC[C@](O)(c2cc3c(c(-c4ccc(F)cc4)n2)OC[C@]3(C)n2ccnn2)C(F)(F)F)ccc1OC1CC1 [Example 11, 4-cyclopropoxy-3-methoxy-N-((S)-3,3,3-trifluoro-2-((R)-7-(4-fluorophenyl)-3-methyl-3-(1H-1,2,3-triazol-1-yl)-2,3-dihydrofuro[2,3-c]pyridin-5-yl)-2-hydroxypropyl)benzamide] | < 200 | > 200 | –
COc1cc(C(=O)NC[C@](O)(c2cc3c(c(-c4ccc(F)cc4)n2)OC[C@]3(C)n2cc(C3CC3)nn2)C(F)(F)F)ccc1OC1CC1 [Example 12, 4-cyclopropoxy-N-((S)-2-((R)-3-(4-cyclopropyl-1H-1,2,3-triazol-1-yl)-7-(4-fluorophenyl)-3-methyl-2,3-dihydrofuro[2,3-c]pyridin-5-yl)-3,3,3-trifluoro-2-hydroxypropyl)-3-methoxybenzamide] | < 200 | – | –
COc1cc(C(=O)NC[C@](C)(O)c2cc3c(c(-c4ccc(F)cc4)n2)OC[C@]3(C)n2cnnc2)ccc1OC1CC1 [Example 13, 4-cyclopropoxy-N-((S)-2-((R)-7-(4-fluorophenyl)-3-methyl-3-(4H-1,2,4-triazol-4-yl)-2,3-dihydrofuro[2,3-c]pyridin-5-yl)-2-hydroxypropyl)-3-methoxybenzamide] | < 200 | > 200 | –
COc1cc(C(=O)NC[C@](C)(O)c2cc3c(c(-c4ccc(F)cc4)n2)OC[C@]3(C)n2cnnc2)cc2cccnc12 [Example 14, N-((S)-2-((R)-7-(4-fluorophenyl)-3-methyl-3-(4H-1,2,4-triazol-4-yl)-2,3-dihydrofuro[2,3-c]pyridin-5-yl)-2-hydroxypropyl)-8-methoxyquinoline-6-carboxamide] | > 200 | – | –
COc1cc(C(=O)NC[C@](O)(c2cc3c(c(-c4ccc(F)cc4)n2)OC[C@]3(C)n2cnnc2)C2CC2)ccc1OC1CC1 [Example 15, 4-cyclopropoxy-N-((S)-2-cyclopropyl-2-((R)-7-(4-fluorophenyl)-3-methyl-3-(4H-1,2,4-triazol-4-yl)-2,3-dihydrofuro[2,3-c]pyridin-5-yl)-2-hydroxyethyl)-3-methoxybenzamide] | < 200 | > 200 | –
COc1cc(C(=O)NC[C@](O)(c2cc3c(c(-c4ccc(F)cc4)n2)OC[C@]3(C)c2nnn[nH]2)C(F)(F)F)cc2cccnc12 [Example 19, 8-methoxy-N-((S)-3,3,3-trifluoro-2-((S)-7-(4-fluorophenyl)-3-methyl-3-(1H-tetrazol-5-yl)-2,3-dihydrofuro[2,3-c]pyridin-5-yl)-2-hydroxypropyl)quinoline-6-carboxamide] | > 200 | – | –
